In US20040058948A1, “Mappicine analogs, methods of inhibiting retroviral reverse transcriptase and methods of treating retroviruses” (priority 2002, published 2004):

Assays:
[1] = biological target: T1, RNA-dependent DNA polymerase activity of HIV reverse transcriptase (Human immunodeficiency virus type 1 group M subtype B, UniProt P04585); assay: RNA-dependent DNA polymerase activity assay of HIV reverse transcriptase; format: biochemical, HIV-1; settings: 10 μM inhibitor concentration, activity with analog / without analog x 100
T1 construct: made in house
Method: In separate, representative assays, mappicine analogs were tested for their ability to inhibit the RNA-dependent DNA polymerase activity of HIV reverse transcriptase and for their ability to inhibit the RNase H activity of HIV reverse transcriptase. The assay for RNA-dependent DNA polymerase activity is discussed in Borkow, G. et al., “Inhibition of the Ribonuclease H and DNA Polymerase Activities of HIV-1 Reverse Transcriptase by N-(4-tert-Butylbenzoyl)-2-hydroxy-1-naphthaldehyde Hydrazone,” Biochemistry 1997, 36, 3179-3185, a copy of which is attached hereto, and the disclosure of which is incorporated herein by reference. Assays were carried out in the absence and in the presence of mappicine analogs (10 μM final concentration). The results are reported as % residual activity, which is the RNA-dependent DNA polymerase activity of the enzyme in the presence of the mappicine analog divided by the RNA-dependent activity of the enzyme in the absence of the mappicine analog, multiplied by 100.

[2] = biological target: RNase H activity of HIV reverse transcriptase (Human immunodeficiency virus type 1 group M subtype B, UniProt P04585); assay: Fluorescence (FRET)-based RNase H activity assay of HIV reverse transcriptase; format: biochemical, HIV-1; parameters: final concentration of 2.5 nM of the p51/p66 RT heterodimer in the assay; made in house; settings: 10 μM inhibitor concentration, activity with analog / without analog x 100
Method: Recently, a fluorescence-based assay to perform preliminary screens in search of HIV RNase H inhibitors has been developed. The assay, which is carried out in 96-well microplates and is adaptable to robotics, is the first high-throughput screen for RNase H and is described in further detail in the Experimental section. HIV-1 RT and human RNase H were cloned, and thus comparative analysis of inhibitor action could be conducted simultaneously.
The assay for RNase H activity of HIV reverse transcriptase was the fluorescence-based assay described in detail in the Experimental section and discussed in U.S. Provisional Patent Application Serial No. 60/318,359. Assays were carried out in the absence and in the presence of mappicine analogs (10 μM final concentration). The results are reported as % residual activity, which is the RNase H activity of the enzyme in the presence of the mappicine analog divided by the RNase H activity of the enzyme in the absence of the mappicine analog, multiplied by 100. Alternatively, the results are reported as % inhibition, which is calculated as the ratio of the RNase H activity of the enzyme in the presence of the mappicine analog to the enzyme activity in the absence of the mappicine analog, multiplied by 100, and then subtracting this number from 100.
Assay for Ribonuclease H Activity Based on Fluorescence Resonance Energy Transfer (FRET)
Preparation of the Fluorophore-RNA/Quencher-DNA Hybrid Duplex Substrate.
The RNA/DNA hybrid duplex substrate for use in the assay comprises an RNA oligonucleotide of sequence 5′-GAU CUG AGC CUG GGA GCU-3′, modified at the 3′-end with Aminolink-2 and derivatized with fluorescein isothiocyanate, to provide a modified RNA oligonucleotide of the sequence 5′-GAU CUG AGC CUG GGA GCU-fluorescein-3′, annealed to a complementary DNA oligonucleotide of the sequence 5′-AGC TCC CAG GCT CAG ATC-3′ modified at the 5′-end with Aminolink-2 and derivatized with the FRET acceptor DABCYL succinimidyl ester, to provide a modified DNA oligonucleotide of the sequence 5′-DABCYL-AGC TCC CAG GCT CAG ATC-3′.
To prepare the 3′-fluorescein-RNA/5′-DABCYL-DNA hybrid duplex substrate, a known amount of 3′-fluorescein-RNA was dissolved in 20 mM Tris buffer (pH 8.0, 37° C.) to provide a final concentration of 5 μM. Two equivalents of the 5′-DABCYL-DNA oligonucleotide were added, and the mixture was heated to 90° C. for 5 min and cooled slowly to room temperature to allow duplex formation. The positioning of the fluorescein donor at the 3′-end of the RNA oligonucleotide and the DABCYL acceptor at the 5′-end of the DNA oligonucleotide provides a very close proximity of the donor and acceptor that results in a very intense quenching of the fluorescein emission in the intact RNA/DNA hybrid duplex substrate due to the spectral overlap of the fluorescence emission of fluorescein with the absorption spectrum of DABCYL. In addition, DABCYL is non-fluorescent, and thus cannot contribute any light emission. Both of these factors result in a very low background and provide a high signal-to-noise in the assay measurements. The ratio of the donor fluorescence in the absence and in the presence of its quencher is approximately fifteen-fold.
Microplate Assay Protocol for the Measurement of RNase H Activity Using the RNA/DNA Hybrid Duplex Substrate.
Reaction assay mixtures contained 5 μl of a stock solution of 2.5 μM RNA/DNA hybrid duplex substrate added to 85 μl of assay buffer (50 mM Tris, pH 8.0, 37° C., containing 60 mM KCl and 2.5 mM MgCl2), prepared in the wells of a 96-well fluorescence microtiter plate, and warmed to 37° C. using the temperature control of the SpectraMax Gemini XS microplate spectrofluorometer (Molecular Devices). Reactions were started by the addition of 5 μl of a solution of recombinant HIV-1 reverse transcriptase (usually providing a final concentration of 2.5 nM of the p51/p66 RT heterodimer in the assay), and mixing using the automatic mixing function of the microplate spectrofluorometer. […]

Compound | Residual activity (%) Polymerase [1] [%] | Residual activity (%) RNase H [2] [%] | also measured
COc1ccc2nc3c(c([Si](C)(C)C)c2c1)Cn1c-3cc(C(=O)C(C)(C)C)c(C)c1=O [5Dβκ] | 64 | 86 | –
Cc1ccc2nc3c(c([Si](C)(C)C(C)(C)C)c2c1)Cn1c-3cc(C(=O)C(C)(C)C)c(C)c1=O [4Cβκ] | 67 | 65 | –
CCc1c2c(nc3ccccc13)-c1cc(C(O)CC)c(C)c(=O)n1C2 (racemic) [AG 4M] | 100 | 74 | –
CCCCCCc1c2c(nc3ccc(OC)cc13)-c1cc(C(=O)CCC3CCCCC3)c(C)c(=O)n1C2 [8Dδκ] | 65 | 90 | –
Cc1c(C(O)C(C)(C)C)cc2n(c1=O)Cc1c-2nc2ccccc2c1[Si](C)(C)C (racemic) [5Aβ] | 103 | 77 | –
CCC(O)c1cc2n(c(=O)c1C)Cc1c-2nc2ccccc2c1[Si](C)(C)C (stereo not shown) [5Aα] | – | – | Residual activity (%) Polymerase ([1]; 10 µM): 32%; Residual activity (%) RNase H ([2]; 10 µM): 93%
Cc1ccc2nc3c(c([Si](C)(C)C)c2c1)Cn1c-3cc(C(=O)CCC2CCCCC2)c(C)c1=O [5Cδκ] | 59 | 99 | –
CCCCCCc1c2c(nc3ccc(OC)cc13)-c1cc(C(O)Cc3ccccc3)c(C)c(=O)n1C2 (stereo not shown) [8Dε] | 73 | 82 | –
Cc1ccc2nc3c(c([Si](C)(C)C)c2c1)Cn1c-3cc(C(=O)C(C)(C)C)c(C)c1=O [5Cβκ] | 76 | 92 | –
CCCCCCc1c2c(nc3ccc(F)cc13)-c1cc(C(=O)CC)c(C)c(=O)n1C2 [8Bακ] | 64 | 103 | –
Cc1ccc2nc3c(c([Si](C)(C)C)c2c1)Cn1c-3cc(C(O)C(C)(C)C)c(C)c1=O (racemic) [5Cβ] | 72 | 80 | –
CCCCCCc1c2c(nc3ccc(C)cc13)-c1cc(C(O)Cc3ccccc3)c(C)c(=O)n1C2 (racemic) [8Cε] | 76 | 76 | –
Cc1c(C(O)Cc2ccccc2)cc2n(c1=O)Cc1c-2nc2ccccc2c1-c1ccccc1 (stereo not shown) [3Aε] | 34 | 99 | –
CCC(=O)c1cc2n(c(=O)c1C)Cc1c-2nc2ccc(F)cc2c1-c1ccccc1 [3Bακ] | 100 | 94 | –
CCCCCCc1c2c(nc3ccc(C)cc13)-c1cc(C(O)CC)c(C)c(=O)n1C2 (racemic) [8Cα] | 84 | 65 | –
Cc1c(C(O)C(C)(C)C)cc2n(c1=O)Cc1c-2nc2ccccc2c1[Si](C)(C)C(C)(C)C (racemic) [4Aβ] | 71 | 101 | –
CCc1c2c(nc3ccc(NC(=O)OC(C)(C)C)cc13)-c1cc(C(O)CC)c(C)c(=O)n1C2 (stereo not shown) [AG 5M, 2-tert-Butyloxycarbonylamino-12-ethyl-7-(1-hydroxypropyl)-8-methyl-11H-indolizino[1,2-b]quinolin-9-one] | – | – | remaining activity at 10 µM ([1]; read-out: Residual activity (%) Polymerase): 87%; remaining activity at 10 µM ([2]; read-out: Residual activity (%) RNase H): 68%
CCCCCCc1c2c(nc3ccc(F)cc13)-c1cc(C(=O)C(C)(C)C)c(C)c(=O)n1C2 [8Bβκ] | 44 | 81 | –

Compound | Residual activity (%) Polymerase [1] [%] | Residual activity (%) RNase H [2] [%] | also measured
CCC(=O)c1cc2n(c(=O)c1C)Cc1c-2nc2ccc(F)cc2c1[Si](C)(C)C(C)(C)C [4Bακ] | 42 | 77 | –
Cc1c(C(O)C(C)(C)C)cc2n(c1=O)Cc1c-2nc2ccccc2c1-c1ccccc1 (racemic) [3Aβ] | 54 | 95 | –
CCCCCCc1c2c(nc3ccc(C)cc13)-c1cc(C(=O)C(C)(C)C)c(C)c(=O)n1C2 [8Cβκ] | 66 | 95 | –
CCC(O)c1cc2n(c(=O)c1C)Cc1c-2nc2ccc(F)cc2c1-c1ccccc1 (racemic) [3Bα] | 54 | 83 | –
Cc1c(C(=O)C(C)(C)C)cc2n(c1=O)Cc1c-2nc2ccc(F)cc2c1[Si](C)(C)C(C)(C)C [4Bβκ] | 82 | 79 | –
Cc1c(C(O)Cc2ccccc2)cc2n(c1=O)Cc1c-2nc2ccc(F)cc2c1[Si](C)(C)C (stereo not shown) [5Bε] | 49 | 88 | –
CCCCCCc1c2c(nc3ccc(C)cc13)-c1cc(C(=O)CC)c(C)c(=O)n1C2 [8Cακ] | 31 | 92 | –
CCC(=O)c1cc2n(c(=O)c1C)Cc1c-2nc2ccccc2c1[Si](C)(C)C(C)(C)C [4Aακ] | 43 | 76 | –
CCC(=O)c1cc2n(c(=O)c1C)Cc1c-2nc2ccc(F)cc2c1[Si](C)(C)C [5Bακ] | 74 | 89 | –
COc1ccc2nc3c(c(-c4ccccc4)c2c1)Cn1c-3cc(C(=O)CCC2CCCCC2)c(C)c1=O [3Dδκ] | 81 | 97 | –
CCCCCCc1c2c(nc3ccc(F)cc13)-c1cc(C(=O)CCC3CCCCC3)c(C)c(=O)n1C2 [8Bδκ] | 80 | 95 | –
Cc1ccc2nc3c(c(-c4ccccc4)c2c1)Cn1c-3cc(C(O)C(C)(C)C)c(C)c1=O (racemic) [3Cβ] | 70 | 84 | –
COc1ccc2nc3c(c(-c4ccccc4)c2c1)Cn1c-3cc(C(O)CCC2CCCCC2)c(C)c1=O (racemic) [3Dδ] | 60 | 67 | –
CCCCCCc1c2c(nc3ccc(C)cc13)-c1cc(C(=O)CCC3CCCCC3)c(C)c(=O)n1C2 [8Cδκ] | 79 | 95 | –
Cc1c(C(O)C(C)(C)C)cc2n(c1=O)Cc1c-2nc2ccc(F)cc2c1[Si](C)(C)C (racemic) [5Bβ] | 74 | 102 | –
Cc1c(C(O)C(C)(C)C)cc2n(c1=O)Cc1c-2nc2ccc(F)cc2c1[Si](C)(C)C(C)(C)C (racemic) [4Bβ] | 49 | 113 | –
Cc1c(C(=O)CCC2CCCCC2)cc2n(c1=O)Cc1c-2nc2ccc(F)cc2c1-c1ccccc1 [3Bδκ] | 59 | 93 | –
